Tests used:
Apis mellifera = details: acute; duration: 48 hours; dermal; mortality
Canidae = details: oral, Dog Other, clinical chemistry
Coturnix coturnix = details: reproduction developmental
Coturnix japonica = details: acute, oral, mortality
Daphnia magna = details: chronic/long-term; duration: 21 days; reproduction
Lepomis macrochirus = details: acute; duration: 96 hours; mortality
Mus musculus = details: acute; oral; mortality
Oncorhynchus mykiss = details: chronic/long-term; duration: 21 days; growth
Tagia sp. = details: acute; duration: 14 days; mortality
Aphidius rhopalosiphi = assay: LR50; higher = less toxic; details: not reported; mortality
Typhlodromus pyri = assay: LR50; higher = less toxic; details: not reported; mortality

For `COc1cc(OC)nc(NC(=O)NS(=O)(=O)N(C)S(C)(=O)=O)n1` [Amidosulfuron], the LD50 (Apis mellifera) was > 100 µg/piece, the NOAEL (Canidae; chronic, duration: 52 weeks) was 144 mg/kg-day and the NOAEL (Canidae; subchronic, duration: 3 months) was 144 mg/kg-day. The NOEC (Coturnix coturnix) was 1000 mg/kg-day, the LC50 (Coturnix japonica; diet) was > 1170 mg/kg-day and the LD50 (Coturnix japonica) was > 2000 mg/kg-day. The NOEC (Daphnia magna) was 1 mg/L, the LC50 (Lepomis macrochirus) was > 100 µg/mL and the LD50 (Mus musculus) was ≥ 5000 mg/kg-day. It also gave an NOEC (Oncorhynchus mykiss) of 6.41 mg/L, an NOEC (Rattus norvegicus; chronic, mortality) of 400 mg/kg-day and an NOAEL (Rattus norvegicus; reproduction developmental, body weight) of 22.5 mg/kg-day. For the same compound, the NOEC (Rattus norvegicus; reproduction developmental, organ weight) was 22.5 mg/kg-day, the LC50 (Tagia sp.) was > 1000 mg/kg and the LR50 (Aphidius rhopalosiphi) was > 45 g/ha. The LR50 (Typhlodromus pyri) was > 45 g/ha.

From EPA's ToxValDB 9.5 (doi:10.2903/j.efsa.2008.116r)
